# Article PMC12213745, “Compounds from Cyclocarya paliurus leaves inhibit binary division of methicillin-resistant Staphylococcus aureus by disrupting FtsZ dynamic” (Frontiers in Microbiology, 2025)
# Where two headings read alike, the source gives them in different places.
# Columns and labels:
# E. coli ATCC25922 = assay: MIC, broth microdilution (CLSI); assay type: cell-based; settings: Escherichia coli
# Text: (§1) Staphylococcus aureus ATCC25923 and Escherichia coli ATCC25922 were obtained from the American Type Culture Collection (ATCC, Manassas, VA, USA). The Methicillin-resistant S. aureus (MRSA) clinical isolate MRSA-4, previously confirmed as mecA-positive and characterized for its antibiotic resistance profile ([Sun et al., 2023]), was used in this study. Staphylococcus epidermidis (GDMCC 1.143), Enterococcus faecalis (GDMCC 1.164), and Salmonella enterica subsp. enterica (GDMCC 1.1114) were obtained from the Guangdong Microbial Culture Collection Center (GDMCC, Guangzhou, China). The Pseudomonas aeruginosa PA14 strain was kindly provided by Professor Min Wu (Southwest Medical University, China). All bacterial strains were routinely cultured in Mueller-Hinton broth (MHB) or Luria-Bertani (LB) broth medium at 37°C with shaking at 200 rpm. Vancomycin was purchased from Solarbio Science & Technology Co., Ltd. (Beijing, China), and oxacillin was obtained from Taiji Group Hengsheng Pharmaceutical Co., Ltd. (Chengdu, China). The polyclonal rabbit primary anti-body to FtsZ was purchased from Abcam PLC (Cambridge, UK). Alexa488-conjugated goat anti-rabbit IgG was purchased from ZSGB-BIO Biotechnology (Beijing, China). DAPI staining solution was purchased from Beyotime Biotechnology (Shanghai, China).
# (§2) The minimum inhibitory concentrations (MICs) of the test compounds (AA, MA, and UA) were determined using the standard broth microdilution method in accordance with the Clinical and Laboratory Standards Institute (CLSI) guidelines ([Humphries et al., 2021]). Bacteria were cultured in MHB or LB broth at 37°C with shaking (200 rpm) to the logarithmic phase, then diluted to a final density of 1 × 10^6 CFU/mL. Test compounds (dissolved in DMSO) and positive controls (vancomycin and oxacillin) were diluted in MHB and serially twofold diluted in 96-well plates. Each well was inoculated with 100 μL of bacterial suspension (1 × 10^6 CFU/mL), yielding a final bacterial density of 5 × 10^5 CFU/mL and a total volume of 200 μL. The final concentrations tested were 128 to 1 μg/mL for AA, MA, and UA; 16 to 0.5 μg/mL for vancomycin; and 64 to 0.0625 μg/mL for oxacillin. DMSO was used as a solvent control. Plates were incubated statically at 37°C for 18–24 h. After incubation, the OD600 was measured using a microplate reader (SpectraMax i3x, Molecular Devices, CA, USA). The MIC was defined as the lowest compound concentration that caused ≥ 90% inhibition of bacterial growth compared to the drug-free growth control. All tests were performed in three independent biological replicates.
# (§3) Following the isolation and identification of AA, MA, and UA from ECPL, we evaluated their antibacterial activity and spectrum. The MICs of the compounds were determined against MRSA-4, S. aureus ATCC25923, S. epidermidis, and E. faecalis (Gram-positive), as well as P. aeruginosa PA14, E. coli ATCC25922, and S. enterica subsp. Enterica (Gram-negative) using the standard broth microdilution method in accordance with CLSI guidelines ([Humphries et al., 2021]).
# E. faecalis = assay: MIC, broth microdilution (CLSI); assay type: cell-based; settings: Enterococcus faecalis
# Text: as §1, §2, §3
# P. aeruginosa PA14 = assay: MIC, broth microdilution (CLSI); assay type: cell-based; settings: Pseudomonas aeruginosa
# Text: as §1, §2, §3
# S. aureus ATCC25923 = assay: MIC, broth microdilution (CLSI); assay type: cell-based; settings: Staphylococcus aureus
# Text: as §1, §2, §3
# S. epidermidis (1.143) = assay: MIC, broth microdilution (CLSI); assay type: cell-based; settings: Staphylococcus epidermidis
# Text: as §1, §2, §3
# MRSA-4 [1] = assay: MIC, broth microdilution (CLSI); assay type: cell-based, Methicillin-resistant S. aureus; settings: Staphylococcus aureus
# Text: as §1, §2, §3
# MRSA-4 [2] = assay: SEM analysis, cell long axis; assay type: cell-based, Methicillin-resistant S. aureus; settings: 2 × MIC, 2 h, mean ± SD, PBS control 0.53 ± 0.04
# Description: Scanning electron microscopy (SEM) was used to observe the morphological changes in bacterial cells treated with the isolated compounds. S. aureus ATCC 25923 and MRSA-4 were grown in MHB to mid-log phase (OD600 = 0.4–0.6) as previously described. The bacteria cultures were treated with AA, MA, or UA at 2 × MIC for 2 h at 37°C with shaking at 150 rpm. Untreated cultures (PBS group) served as the growth control. After incubation, bacterial cells were harvested by centrifugation and washed three times with PBS (pH 7.2). Coverslips (8 mm diameter) were cleaned with absolute ethanol under ultrasonication, air-dried, immersed in 0.1% (w/v) chitosan solution (dissolved in 1% acetic acid) for 5 s, and air-dried again at room temperature ([Su et al., 2022]). A 25 μL aliquot of the washed bacterial suspension was added to each coverslip and allowed to adhere for 1 h at room temperature. Adhered cells were fixed with 1 mL of 2.5% (v/v) glutaraldehyde at 4°C overnight. Fixed samples were rinsed 2–3 times with PBS (5 min per rinse), then dehydrated through a graded ethanol series: 50, 70, and 90% ethanol (each once for 5 min), followed by 100% ethanol (three times for 5 min each). After dehydration, samples were air-dried overnight at room temperature. SEM imaging was performed using an EVO 10 scanning electron microscope (Zeiss, Jena, Germany). Cell long-axis statistical analysis was conducted using ImageJ software (Version 1.42q, National Institutes of Health, MD, USA).
# Having established the antibacterial activity of AA, MA, and UA, we next examined their effects on bacterial morphology. We employed SEM to examine the alterations induced by these compounds in S. aureus ATCC25923 and MRSA-4. Bacterial cultures were treated with AA, MA, or UA at 2 × MIC for 2 h, while untreated (PBS group) cultures served as negative controls. […] In PBS groups, both S. aureus ATCC25923 and MRSA-4 maintained typical spherical morphology with smooth and intact surfaces.
# [3] = E. coli ATCC25922, ≥ 90% growth inhibition, 18–24 h, read-out: MIC
# [4] = E. faecalis, ≥ 90% growth inhibition, 18–24 h, read-out: MIC
# [5] = P. aeruginosa PA14, ≥ 90% growth inhibition, 18–24 h, read-out: MIC
# [6] = S. aureus ATCC25923, ≥ 90% growth inhibition, 18–24 h, read-out: MIC
# [7] = S. epidermidis (1.143), ≥ 90% growth inhibition, 18–24 h, read-out: MIC
# [8] = MRSA-4, ≥ 90% growth inhibition, 18–24 h, read-out: MIC
SMILES,MIC (E. coli ATCC25922; ATCC25922),MIC (E. faecalis),MIC (P. aeruginosa PA14; PA14),MIC (S. aureus ATCC25923; ATCC25923),MIC (S. epidermidis (1.143)),MIC (MRSA-4 [1]; MRSA),length of long axis of cells (MRSA-4 [2]),MIC (E. coli ATCC25922; [3]),MIC (E. faecalis; [4]),MIC (P. aeruginosa PA14; [5]),MIC (S. aureus ATCC25923; [6]),MIC (S. epidermidis (1.143); [7]),MIC (MRSA-4 [1]; [8])
"CC1(C)CC[C@]2(C(=O)O)CC[C@]3(C)C(=CC[C@@H]4[C@@]5(C)C[C@@H](O)[C@H](O)C(C)(C)[C@@H]5CC[C@]43C)[C@@H]2C1 [MA, maslinic acid]",> 128 µg/mL,4 µg/mL,> 128 µg/mL,32 µg/mL,8 µg/mL,32 µg/mL,0.76 ± 0.10 μm,,,,,,
"C[C@H]1[C@H](C)CC[C@]2(C(=O)O)CC[C@]3(C)C(=CC[C@@H]4[C@@]5(C)C[C@@H](O)[C@H](O)[C@@](C)(CO)[C@@H]5CC[C@]43C)[C@H]12 [AA, asiatic acid]",,,,,,,0.75 ± 0.07 μm,> 128 µg/mL,16 µg/mL,> 128 µg/mL,32 µg/mL,16 µg/mL,32 µg/mL
"C[C@H]1[C@H](C)CC[C@]2(C(=O)O)CC[C@]3(C)C(=CC[C@@H]4[C@@]5(C)CC[C@H](O)C(C)(C)[C@@H]5CC[C@]43C)[C@H]12 [UA, ursolic acid]",,,,,,,0.69 ± 0.06 μm,> 128 µg/mL,2 µg/mL,> 128 µg/mL,16 µg/mL,8 µg/mL,8 µg/mL
